Source: publication PMC5062470, “The mGluR2 positive allosteric modulator, SAR218645, improves memory and attention deficits in translational models of cognitive symptoms associated with schizophrenia” (Scientific Reports, 2016)

Columns and labels:
human mGluR3 = biological target: T1, human mGluR3 (Homo sapiens, UniProt Q14832); assay: Multispan Allosteric Profiling panel, Ca2+ (Gqi5); type: cell-based
T1 construct: host or cells: HEK293 co-expressing Gqi5

Sprague-Dawley rats = assay: Catalepsy test; type: in vivo; conditions: 30, po
Procedure: Male Sprague-Dawley rats weighing 225–234 g were used. Each animal was placed such that their forepaws rested on a wooden dowel (1 × 18 cm) mounted horizontally 9 cm from the floor and 4 cm from one end of a white translucent plastic box (26 × 20 × 15 cm). The amount of time each rat spent with at least one forepaw on the bar was determined, for a maximum period of 540 s. This procedure was repeated three times. White noise was used during the acclimation and test periods to minimize the effects of outside noises. SAR218645 was administered alone at a dose of 30 mg/kg po. Haloperidol (1 mg/kg ip) was used alone and in co-administration with SAR218645 (1, 3, and 10 mg/kg, po). Statistics consisted of using a one-way ANOVA, followed by a post-hoc Dunnett’s test for individual comparisons. Ten animals per group were used.

human mGluR7 = biological target: T2, human mGluR7 (Homo sapiens, UniProt Q14831); assay: Multispan Allosteric Profiling panel, Ca2+ (Gqi5); type: cell-based
T2 construct: host or cells: HEK293 co-expressing Gqi5
T2 sequence (Q14831 35-915): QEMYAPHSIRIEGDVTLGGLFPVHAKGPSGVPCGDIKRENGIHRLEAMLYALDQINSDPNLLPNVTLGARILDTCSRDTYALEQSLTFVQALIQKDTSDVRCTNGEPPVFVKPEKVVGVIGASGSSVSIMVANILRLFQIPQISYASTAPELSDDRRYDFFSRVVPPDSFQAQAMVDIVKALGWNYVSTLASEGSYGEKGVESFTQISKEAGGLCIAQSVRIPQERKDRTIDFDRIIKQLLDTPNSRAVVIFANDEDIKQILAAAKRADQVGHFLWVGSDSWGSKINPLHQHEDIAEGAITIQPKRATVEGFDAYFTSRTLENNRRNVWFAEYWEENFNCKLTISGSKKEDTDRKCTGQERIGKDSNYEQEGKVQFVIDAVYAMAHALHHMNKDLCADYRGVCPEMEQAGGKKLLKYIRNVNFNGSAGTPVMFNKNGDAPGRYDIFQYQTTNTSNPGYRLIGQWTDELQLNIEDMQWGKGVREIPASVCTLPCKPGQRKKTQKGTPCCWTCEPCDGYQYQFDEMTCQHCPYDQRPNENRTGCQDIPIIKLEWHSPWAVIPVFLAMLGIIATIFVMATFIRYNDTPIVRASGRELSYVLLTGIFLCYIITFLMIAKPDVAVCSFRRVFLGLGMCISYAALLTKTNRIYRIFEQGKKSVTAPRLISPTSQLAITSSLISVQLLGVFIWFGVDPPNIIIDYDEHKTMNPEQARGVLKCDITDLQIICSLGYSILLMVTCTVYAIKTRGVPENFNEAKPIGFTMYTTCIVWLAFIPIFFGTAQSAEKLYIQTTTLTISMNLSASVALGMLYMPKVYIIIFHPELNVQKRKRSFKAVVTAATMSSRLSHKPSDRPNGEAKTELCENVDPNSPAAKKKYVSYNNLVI

Swiss mice [1] = assay: Novel object recognition task, MK-801-induced deficit; type: in vivo
Source text: The test apparatus was based on that described by Ennaceur and Delacour[37] in rats and adapted for use in mice[38]. The apparatus consisted of a uniformly lit (20 lux) PVC enclosure (52 L × 52 W × 40 H cm) with a video camera positioned 160 cm above the bench. The objects to be discriminated were a metal triangle (3.3 cm height, 5.5 cm wide) and a plastic piece of construction game (3 cm height and 3 cm wide). The observer was located in an adjacent room fitted with a video monitoring system. The experiment consisted of 3 sessions. During the first session, male Swiss mice (25–30 g) were allowed to become familiar with the experimental environment for 5 min (S1). Time spent active (animal moving around with or without sniffing and exploration) was measured. […] Times spent exploring the familiar and novel objects were recorded. […] Data (time exploring each of the two objects, in seconds) were analyzed with a two-way ANOVA, with the treatment and the object as the between factors, followed by a Winer analysis for comparing the time spent exploring the familiar versus the novel object for each treatment. […]

mice = tested on: mice; parameters: method as in earlier work; conditions: cited from earlier work
human mGluR2 [2] = biological target: T3, human mGluR2 (Homo sapiens, UniProt Q14416); assay: Forskolin-stimulated cAMP accumulation in HEK293 cells; type: cell-based; parameters: expressed in transfected cells; host or cells: HEK293 Flp-in-T-REx (inducible), co-expressing Gα16
T3 sequence (Q14416 19-872): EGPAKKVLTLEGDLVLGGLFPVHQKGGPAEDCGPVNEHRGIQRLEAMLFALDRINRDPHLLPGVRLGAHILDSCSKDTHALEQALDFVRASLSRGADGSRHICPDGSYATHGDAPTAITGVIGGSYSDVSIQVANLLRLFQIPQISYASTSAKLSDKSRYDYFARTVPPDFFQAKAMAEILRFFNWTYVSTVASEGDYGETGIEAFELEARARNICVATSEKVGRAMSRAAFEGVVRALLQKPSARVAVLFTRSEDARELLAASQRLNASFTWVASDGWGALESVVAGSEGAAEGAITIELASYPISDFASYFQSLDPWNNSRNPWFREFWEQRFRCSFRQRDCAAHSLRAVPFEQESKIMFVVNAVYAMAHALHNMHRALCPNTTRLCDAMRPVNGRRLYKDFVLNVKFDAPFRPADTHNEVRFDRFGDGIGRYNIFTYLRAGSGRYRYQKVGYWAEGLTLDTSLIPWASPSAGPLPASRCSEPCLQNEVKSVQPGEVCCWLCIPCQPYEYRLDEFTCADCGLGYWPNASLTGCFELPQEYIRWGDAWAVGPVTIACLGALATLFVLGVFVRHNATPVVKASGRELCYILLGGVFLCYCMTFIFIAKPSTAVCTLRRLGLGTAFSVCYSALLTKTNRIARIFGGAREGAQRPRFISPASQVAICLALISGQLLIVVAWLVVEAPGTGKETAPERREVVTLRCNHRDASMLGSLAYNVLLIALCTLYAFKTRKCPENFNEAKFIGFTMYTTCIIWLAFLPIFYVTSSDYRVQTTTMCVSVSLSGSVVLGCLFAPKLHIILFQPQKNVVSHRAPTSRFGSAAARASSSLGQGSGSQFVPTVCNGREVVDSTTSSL
Procedure: Recombinant human mGluR2 receptor and the excitatory amino acid transporter SLCA1 were stably expressed in a doxycycline inducible HEK293 Flp-in-T-Rex cell line. […] Cells were treated with the compounds, and cAMP production was induced with 1 μM Forskolin for 5 min. cAMP was detected using the CisBio HTRF detection kit. […] EC50 were calculated using 4-parameter curve fitting.

Swiss mice [3] = assay: MK-801-induced locomotor hyperactivity; type: in vivo
Procedure: An actimeter device consisting of a cylinder (20 cm diameter, 9.5 cm height, Apelex, France) equipped with two perpendicular light beams located 1.5 cm above the floor was used. Mice from the transgenic batches (DAT^−/− and NMDA Nr1^neo−/−) were orally pretreated with either SAR218645 or vehicle and individually isolated in boxes for a period of 60 min. Animals were then placed in the actimeter device and locomotor activity (number of interrupted light beams) was recorded for a period of 30 or 60 min. Mice in which the expression of the dopamine transporter (DAT) was knocked out (i.e., the DAT^−/− mouse) have been proposed as a reliable model of the positive symptoms of schizophrenia. In these mice, dopamine levels in the synapse are dramatically elevated and these animals are hyperactive and agitated in behavioral tests. […] Immediately following amphetamine challenge, 30 min after MK-801 challenge, mice were placed in the actimeter devices and locomotor activity was recorded for a period of 30 (DAT^−/−) or 60 (NMDA Nr1^neo−/−) min.
Statistical analyses were performed using SAS V8.2 software (SAS Institute, Cary, NC, USA). The number of light beam breaks (motility count) recorded for 30 or 60 min were analyzed using one-way ANOVAs using a fixed factor of challenge or genotype and complementary post hoc (Newman-Keuls) tests were performed. […]

human mGluR2 [4] = biological target: T3, human mGluR2; assay: Ca2+ mobilization assay, HEK293 cells expressing human mGluR2/Gα16; type: cell-based; parameters: expressed in transfected cells; host or cells: HEK293 Flp-in-T-REx (inducible), co-expressing Gα16

T1 sequence (Q14832 23-879): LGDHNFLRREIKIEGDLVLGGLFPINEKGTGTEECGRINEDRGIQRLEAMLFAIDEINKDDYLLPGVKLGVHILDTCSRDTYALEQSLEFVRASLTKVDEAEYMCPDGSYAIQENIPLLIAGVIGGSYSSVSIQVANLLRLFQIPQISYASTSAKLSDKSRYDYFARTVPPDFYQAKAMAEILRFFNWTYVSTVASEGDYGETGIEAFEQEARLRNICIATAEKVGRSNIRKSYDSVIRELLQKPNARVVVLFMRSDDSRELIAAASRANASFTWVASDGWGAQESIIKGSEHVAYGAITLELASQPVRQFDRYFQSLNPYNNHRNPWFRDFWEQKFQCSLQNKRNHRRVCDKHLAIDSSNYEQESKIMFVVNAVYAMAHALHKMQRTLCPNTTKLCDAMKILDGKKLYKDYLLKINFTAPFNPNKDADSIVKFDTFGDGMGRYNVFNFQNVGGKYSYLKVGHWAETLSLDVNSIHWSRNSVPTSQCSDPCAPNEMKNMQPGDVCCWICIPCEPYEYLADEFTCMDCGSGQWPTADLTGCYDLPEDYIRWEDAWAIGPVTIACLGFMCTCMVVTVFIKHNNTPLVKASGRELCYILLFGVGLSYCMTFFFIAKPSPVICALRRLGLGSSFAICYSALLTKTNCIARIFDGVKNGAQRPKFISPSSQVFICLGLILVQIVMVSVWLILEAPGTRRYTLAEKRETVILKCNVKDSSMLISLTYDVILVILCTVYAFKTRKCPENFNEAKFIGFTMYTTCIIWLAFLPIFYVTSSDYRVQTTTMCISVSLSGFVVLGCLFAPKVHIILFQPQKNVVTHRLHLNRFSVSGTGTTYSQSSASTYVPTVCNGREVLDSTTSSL

CC1(C)CCc2cc(OC[C@@H]3Cn4ccc(=O)nc4O3)ccc21 [SAR218645, (S)-2-(1,1-dimethyl-indan-5-yloxymethyl)-2,3-dihydro-oxazolo[3,2-a]pyrimidin-7-one]
effect on glutamate-induced increases in intracellular calcium (human mGluR3; 10 μM SAR218645): no effect | calcium response to compound alone (human mGluR3; SAR218645 alone): did not elicit a calcium response | Minimal active dose (Sprague-Dawley rats): >30 mg/kg | effect on glutamate-induced activation (human mGluR7; 10 μM SAR218645): no effect | calcium response to compound alone (human mGluR7; SAR218645 alone): did not elicit a calcium response | effect on preferential investigation of the novel object (Swiss mice [1]; 0.01, 0.03 and 0.1 mg/kg po, coadministered with MK-801 (0.0125 mg/kg, ip)): significantly restored | Minimal active dose (Swiss mice [1]; dose-range 0.01–1, po, Swiss mice): 0.01 mg/kg | effect on the activity of risperidone in the active avoidance test (mice): did not interfere | EC50 (human mGluR2 [2]): 159 nM | effect on locomotor activity (Swiss mice [3]; MK-801 0.2 mg/kg ip, SAR218645 po): no effects | Minimal active dose (Swiss mice [3]; dose-range 0.1–10, po, Swiss mice): >10 mg/kg | maximal potentiation of the glutamate response (human mGluR2 [4]): approximately 10 fold
